Assay [1] relates to PMT-complemented mutant yeast. Put plainly: Growth inhibition of complemented yeast (statement on PMT-complemented strains together). In kind it is cell-based, Saccharomyces cerevisiae. As to conditions: various concentrations. As to the method:
(§1) To determine the effect of PMT inhibitors on the growth of PMT- and LacZ-complemented pem1Δpem2Δ S. cerevisiae, the yeast cells were first starved of choline as described above, and the cells were diluted to an OD600 of ~0.6. The PMT-complemented yeast cells were cultured in SG medium (3.4g/L yeast nitrogen base without amino acids, 2% galactose, 30 mg/L histidine, 100 mg/L leucine, 100 mg/L adenine, and 50 mg/L tryptophan) supplemented with 1 mM ethanolamine hydrochloride, while the LacZ-complemented yeast cells were cultured in SG medium supplemented with 1 mM choline chloride. Compounds that depicted cross-inhibitory activity against PMT proteins in vitro were added at various concentrations to the cultures. As a negative control, DMSO (at a final concentration not exceeding 2% [vol/vol]) was added to yeast cultures designated control cultures. The cultures were incubated at 30°C with shaking at 275 rpm for 4 days. On a daily basis during the course of culture, 200-μL portions of culture aliquots were taken, and their OD600s were measured using a microplate reader. In preliminary work, we had observed that the growth of PMT- and LacZ-complemented pem1Δpem2Δ S. cerevisiae plateaued at 3 to 4 days of culture. Therefore, to determine the inhibitory effect of nematode PMT inhibitors on the growth of PMT- and LacZ-complemented pem1Δpem2Δ S. cerevisiae, measurements taken on day 3 were used. The results were presented as percentage of growth rate using the following formula: PGR = growth rate (plus inhibitor)/growth rate (minus inhibitor) × 100 where the percent growth rate (PGR) is the growth rate of inhibitor-treated PMT- or LacZ- complemented Pem1Δpem2Δ S. cerevisiae, considering the growth rate of untreated PMT- or LacZ- complemented Pem1Δpem2Δ S. cerevisiae is 100%; the growth rate = ΔA600^Day 3/ΔA600^Day 0; ΔA600^Day 0 is the absolute value of A600 of PMT- or LacZ- complemented pem1Δ/pem2Δ S. cerevisiae at day 0, which equals the A600 of the culture minus the A600 of the growth medium only; ΔA600^Day 3 is the absolute value of the A600 of PMT- or LacZ complemented pem1Δ/pem2Δ S. cerevisiae at day 3, which equals the A600 of the culture at day 3 minus the A600 of growth medium only; the growth rate (plus inhibitor) is the growth rate of PMT- or -LacZ complemented pem1Δpem2Δ S. cerevisiae in the presence of test compound; and the growth rate (minus inhibitor) is the growth rate of the PMT- or LacZ complemented pem1Δ/pem2Δ S. cerevisiae in the absence of test compound, but with a volume of DMSO equal to that of compound added in the treated culture. The dose-response curves were generated with GraphPad Prism software and IC50 concentrations of the compounds in PMT- and LacZ-complemented yeast cells derived.

The target in the next assay is AsPMT (Ascaris suum, UniProt F1L4B9). Type of assay: biochemical. As to conditions: for Selectivity index (SI) AsPMT: IC50^Cytotoxicity/IC50^Enzyme; for IC50: read-out: Mean IC50 ± SEM, Enzyme AsPMT. Here is the method: The chemical compounds were obtained from the National Cancer Institute/Developmental Therapeutics Program Open Chemical Repository. […] Compounds were individually reconstituted in molecular biology grade dimethyl sulfoxide (DMSO) from Sigma-Aldrich to a stock concentration of 10 mM and stored at −20°C until use. Initial screening was conducted using recombinant HcPMT1 protein as enzyme in the methyltransferase assay, with test compounds at a final concentration of 40 μM. […] To the positive reaction mixture, instead of test compound, an equivalent volume of DMSO was added. In the negative-control reaction mixture, instead of HcPMT1 and test compound, equivalent volumes of 1× transferase buffer and DMSO, respectively, were added. Detection buffer (100 μL) containing fluorescence substrate was added into each reaction mixture. The reactions were prepared in triplicate wells in 96-well plates. The plates were covered in aluminum foil and incubated at room temperature with agitation for 30 min, followed by reading the fluorescence at 380EX/520EM. The mean percent inhibition (MPI) of the test compound on enzymatic activity was calculated using the following formula: MPI = ΔRFUpositive control − ΔRFUcompounds/ΔRFUpositive control × 100, where the positive control is a reaction without compound but with recombinant PMT protein and a volume of DMSO equivalent to that of compound used in test reactions; the negative control is the reaction without protein and compounds, but with volumes of dialysis buffer and DMSO equivalent to protein and compound added in the test reaction mixtures, respectively; ΔRFUpositive control represents the absolute relative fluorescence units (RFU) for the positive control, which equals RFUpositive control – RFUnegative control; and ΔRFUcompounds represents the absolute RFU value for the sample with the compounds, which equals RFUcompounds – RFUnegative control.
Sequence of AsPMT (F1L4B9 entry or part of it): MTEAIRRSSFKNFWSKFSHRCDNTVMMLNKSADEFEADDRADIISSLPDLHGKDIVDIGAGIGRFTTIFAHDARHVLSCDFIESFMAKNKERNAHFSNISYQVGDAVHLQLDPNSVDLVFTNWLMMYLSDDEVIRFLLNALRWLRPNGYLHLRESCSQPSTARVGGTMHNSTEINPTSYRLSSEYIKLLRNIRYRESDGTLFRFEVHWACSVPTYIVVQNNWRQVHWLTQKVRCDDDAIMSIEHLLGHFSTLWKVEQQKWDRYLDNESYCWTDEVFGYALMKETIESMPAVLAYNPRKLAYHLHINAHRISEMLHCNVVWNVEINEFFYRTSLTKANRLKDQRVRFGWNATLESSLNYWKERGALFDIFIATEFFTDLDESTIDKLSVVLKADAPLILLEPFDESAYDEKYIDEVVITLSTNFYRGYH
The enzymatic assay was set up as described above, with the respective PMT protein as enzyme.

Assay [2] deals with AcPMT1+2-complemented pem1Δ/pem2Δ S. cerevisiae. Put plainly: Growth inhibition of complemented yeast. In kind it is cell-based, Saccharomyces cerevisiae. The settings on record: read-out: Mean growth inhibition EC50 ± SEM on complemented yeast, AcPMT1+2. As to the method: as §1
The subject of assay [3] is AsPMT-complemented pem1Δ/pem2Δ S. cerevisiae. Kind of assay: Growth inhibition of complemented yeast. In kind it is cell-based, Saccharomyces cerevisiae. The settings on record: medium with ethanolamine, no choline, day 3, read-out: Mean growth inhibition EC50 ± SEM on complemented yeast, AsPMT. Here is the method:
as §1

Assay [4] has as its system OdPMT-complemented pem1Δ/pem2Δ S. cerevisiae. Kind of assay: Growth inhibition of complemented yeast. In kind it is cell-based, Saccharomyces cerevisiae. As to conditions: read-out: Mean growth inhibition EC50 ± SEM on complemented yeast, OdPMT. Here is the method:
as §1

Assay [5] deals with HcPMT1+2-complemented pem1Δ/pem2Δ S. cerevisiae. Put plainly: Growth inhibition of complemented yeast. Type of assay: cell-based, Saccharomyces cerevisiae. As to conditions: read-out: Mean growth inhibition EC50 ± SEM on complemented yeast, HcPMT1+2. Here is the method:
as §1

For assay [6], the system named is LacZ-complemented pem1Δ/pem2Δ S. cerevisiae. Kind of assay: Growth inhibition of complemented yeast. In kind it is cell-based, Saccharomyces cerevisiae. The settings on record: for EC50: Saccharomyces cerevisiae, 72 h, read-out: Mean growth inhibition EC50 ± SEM on complemented yeast, LacZ; for effect on LacZ-expressing mutant yeast: medium with choline. Here is the method:
as §1

The test system of assay [7] is TcPMT-complemented pem1Δ/pem2Δ S. cerevisiae. Put plainly: Growth inhibition of complemented yeast. Type of assay: cell-based, Saccharomyces cerevisiae. The settings on record: read-out: Mean growth inhibition EC50 ± SEM on complemented yeast, TcPMT. Here is the method:
as §1

For assay [8], the system named is DvPMT1+2-complemented pem1Δ/pem2Δ S. cerevisiae. Put plainly: Growth inhibition of complemented yeast. Type of assay: cell-based, Saccharomyces cerevisiae. The settings on record: read-out: Mean growth inhibition EC50 ± SEM on complemented yeast, DvPMT1+2. Here is the method: as §1
Setting [9] is: medium with ethanolamine, no choline, day 3.

Where two headings read alike, the source gives them in different places.

Results on seven compounds are retold here after publication PMC10269165 (Antimicrobial Agents and Chemotherapy, 2023).
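For Selectivity index (SI) AsPMT in this document: cytotoxicity IC50 measured in HCT-8 cells.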

What is called IC50 is the concentration that gives 50% inhibition. For orientation: EC50 means the concentration giving half of the maximal effect. Consider `O=c1c(O)cccc2cc(O)c(O)c(O)c12` [NSC35676, purpurogallin], for which the “effect on the growth of PMT-complemented mutant yeast” value (shortened to “effect on the growth”) in assay [1] is “concentration-dependent inhibitory effect”. Further, the “Selectivity index (SI) AsPMT” value at AsPMT is on record as 45.59. Also, the IC50 at AsPMT stood at 12.4 ± 1.1 µM. The EC50 amounted to 17.6 ± 3.72 µM in assay [2] (Saccharomyces cerevisiae, 72 h); 15.1 ± 0.7 µM in assay [3] (Saccharomyces cerevisiae, 72 h); 3.98 ± 1.08 µM in assay [4] (Saccharomyces cerevisiae, 72 h); 5.45 ± 0.95 µM in [5] (Saccharomyces cerevisiae, 72 h); 6.02 ± 0.25 µM in assay [6]; 22.9 ± 5 µM in [7] (Saccharomyces cerevisiae, 72 h). Also, in assay [8] (Saccharomyces cerevisiae, 72 h), the 50% effective concentration (EC50) came out at 12.9 ± 1.58 µM. Also, the “effect on LacZ-expressing mutant yeast” value in assay [6] is reported as “no or negligible inhibitory effect”.

With `CO[C@@]12[C@H](COC(N)=O)C3=C(C(=O)C(C)=C(N)C3=O)N1C[C@H]1[C@@H]2N1C` (stereo partly shown) [NSC56410], the “effect on the growth” value in [1] is “concentration-dependent inhibitory effect”. Further, on AsPMT, the “Selectivity index (SI) AsPMT” value was determined as 3.24. For the same compound, the half-maximal inhibitory concentration (IC50) on AsPMT was found to be 58.1 ± 12.9 µM. Further, the EC50 in assay [2] (Saccharomyces cerevisiae, 72 h) was found to be 40.3 ± 9.42 µM; in assay [3] (Saccharomyces cerevisiae, 72 h), 50.7 ± 3.87 µM; in [4] (Saccharomyces cerevisiae, 72 h), 37.6 ± 4.87 µM; in assay [5] (Saccharomyces cerevisiae, 72 h) it was 1.48 ± 0.21 µM; in [6] it was 50.4 ± 13.2 µM; in [7] (Saccharomyces cerevisiae, 72 h), 45.1 ± 3.97 µM. Moreover, the EC50 in assay [8] (Saccharomyces cerevisiae, 72 h) was determined as 45.6 ± 7.61 µM. Also, in assay [6], the “effect on LacZ-expressing mutant yeast” value is listed as “no or negligible inhibitory effect”.

With `COc1ccc(-c2c(C)c(C(=O)O)nc(-c3ccc4c(O)c(OC)c5c(c4n3)=NC(C)(C)N=5)c2N)c(O)c1OC` [NSC62709], the “effect on the growth” value in [1] is “concentration-dependent inhibitory effect”. At AsPMT, the “Selectivity index (SI) AsPMT” value was determined as 6.75. In addition, on AsPMT, the IC50 was 44.3 ± 1.35 µM. For the same compound, the EC50 was determined as 26.9 ± 7.63 µM in assay [2] (setting [9]); 15.4 ± 2.13 µM in assay [3]; 19.5 ± 2.56 µM in assay [4] (setting [9]); 3.03 ± 0.26 µM in [5] (setting [9]); 29.8 ± 7.61 µM in [7] (setting [9]); 25.6 ± 5.07 µM in assay [8] (setting [9]). The “effect on LacZ-expressing mutant yeast” value in assay [6] is “no or negligible inhibitory effect”.

As to `COc1cc(C)c2c(c1C=O)Oc1c(c(C)c(O)c3c1C(O)OC3=O)OC2=O` (stereo not shown) [NSC87511], in assay [1], the “effect on the growth” value is given as “concentration-dependent inhibitory effect”. Further, on AsPMT, the “Selectivity index (SI) AsPMT” value came to 0.97. Moreover, the IC50 at AsPMT is 177 ± 15.6 µM. In addition, the half-maximal effective concentration (EC50) in assay [2] (setting [9]) was determined as 26.4 ± 3.45 µM; in assay [3], 25.9 ± 1.24 µM; in [4] (setting [9]) it was 57.9 ± 5.18 µM; in [5] (setting [9]), 2.08 ± 0.29 µM; in [7] (setting [9]) it was 58.2 ± 7 µM; in assay [8] (setting [9]) it was 17.1 ± 1.15 µM. For the same compound, the “effect on LacZ-expressing mutant yeast” value in assay [6] is “no or negligible inhibitory effect”.

Turning to `CO[C@H]1/C=C/O[C@@]2(C)Oc3c(C)c(O)c4c(O)c(cc(O)c4c3C2=O)NC(=O)/C(C)=C\C=C\[C@H](C)[C@H](O)[C@@H](C)[C@@H](O)[C@@H](C)[C@H](OC(C)=O)[C@@H]1C` [NSC133100], the “effect on the growth” value in [1] was “concentration-dependent inhibitory effect”. Besides, at AsPMT, the “Selectivity index (SI) AsPMT” value stood at 3.00. Moreover, the half-inhibitory concentration (IC50) at AsPMT is 34 ± 2.85 µM. Besides, the concentration giving a half-maximal response (EC50) in [2] (setting [9]) amounted to 35.1 ± 5.01 µM; in [3], 23.4 ± 1.85 µM; in assay [4] (setting [9]), 36.6 ± 8.4 µM; in assay [5] (setting [9]), 18.7 ± 2.07 µM; in assay [7] (setting [9]), 60.1 ± 5.85 µM; in assay [8] (setting [9]), 35.7 ± 3.67 µM. For the same compound, the “effect on LacZ-expressing mutant yeast” value in assay [6] is listed as “no or negligible inhibitory effect”.

Take `CO[C@@H]1/C=C\O[C@]2(C)Oc3c(C)c(O)c4c(O)c(c(CN(C)C)c(O)c4c3C2=O)NC(=O)/C(C)=C\C=C[C@@H](C)[C@@H](O)[C@H](C)[C@@H](O)[C@H](C)[C@H](OC(C)=O)[C@@H]1C` [NSC145612]: the “effect on the growth” value in [1] is “concentration-dependent inhibitory effect”. The “Selectivity index (SI) AsPMT” value at AsPMT was determined as 6.67. In addition, on AsPMT, the IC50 is 45.3 ± 1.71 µM. For the same compound, the half-maximal effective concentration (EC50) worked out at 29.3 ± 2.54 µM in assay [2] (setting [9]); 28.9 ± 4.38 µM in assay [3]; 32.8 ± 2.64 µM in assay [4] (setting [9]); 8.28 ± 0.99 µM in assay [5] (setting [9]); 27.2 ± 7.7 µM in assay [7] (setting [9]); 23 ± 2.15 µM in [8] (setting [9]). Moreover, the “effect on LacZ-expressing mutant yeast” value in assay [6] is on record as “no or negligible inhibitory effect”.

As for `CO[C@@H]1/C=C/O[C@@]2(C)Oc3c(C)c(O)c4c(c3C2=O)C(=N[C@@H]2CC[C@@H](O)O[C@H]2C)C=C(NC(=O)/C(C)=C\C(=O)[C@@H]2C[C@@H]2[C@H](O)[C@@H](C)[C@@H](O)[C@@H](C)[C@H](OC(C)=O)[C@@H]1C)C4=O` [NSC177383], on AsPMT, the “Selectivity index (SI) AsPMT” value worked out at 3.47. On AsPMT, the IC50 came to 24.6 ± 1.79 µM. For the same compound, the concentration for a half-maximal effect (EC50) was found to be 21.9 ± 7.31 µM in assay [2] (setting [9]); 12.3 ± 1.11 µM in [3]; 19.8 ± 3.9 µM in assay [4] (setting [9]); 6.11 ± 1.84 µM in assay [5] (setting [9]); 11.8 ± 1.43 µM in assay [7] (setting [9]); 15.4 ± 1.91 µM in assay [8] (setting [9]).
